In ChEMBL document CHEMBL2069165, “Synthesis and evaluation of substituted hexahydronaphthalenes as novel inhibitors of the Mcl-1/BimBH3 interaction” (Bioorg Med Chem Lett, 2012):

Legend:
[1] = target: Induced myeloid leukemia cell differentiation protein Mcl-1/Bcl-2-like protein 11 (Homo sapiens, UniProt Q07820); assay: Inhibition of GST-Mcl-1/BH3 domain of Bim interaction after 1 hr by ELISA; type: protein assay
[2] = target: T1, Induced myeloid leukemia cell differentiation protein Mcl-1/Bcl-2-like protein 11 (Homo sapiens) (UniProt Q07820+O43521); assay: Inhibition of GST-Mcl-1/BH3 domain of Bim interaction at 25 uM after 1 hr by ELISA; type: protein assay
[3] = target: T1, Induced myeloid leukemia cell differentiation protein Mcl-1/Bcl-2-like protein 11 (Homo sapiens); assay: Inhibition of GST-Mcl-1/BH3 domain of Bim interaction in human MDA-MB-468 cells at 25 uM after 24 hrs by Western blotting relative to control; type: cell-based
[4] = target: T1, Induced myeloid leukemia cell differentiation protein Mcl-1/Bcl-2-like protein 11 (Homo sapiens); assay: Inhibition of GST-Mcl-1/BH3 domain of Bim interaction in human MDA-MB-468 cells at 50 uM after 24 hrs by Western blotting relative to control; type: cell-based
[5] = Solubility of the compound in human MDA-MB-468 cell culture medium at >100 uM; type: physicochemical
MDA-MB-468 = assay: Growth inhibition of human MDA-MB-468 cells at 100 uM after 72 to 120 hrs by MTT assay; type: functional; settings: read-out: GI

Induced myeloid leukemia cell differentiation protein Mcl-1/Bcl-2-like protein 11, sequence (Q07820 whole entry, the tested form may be a part): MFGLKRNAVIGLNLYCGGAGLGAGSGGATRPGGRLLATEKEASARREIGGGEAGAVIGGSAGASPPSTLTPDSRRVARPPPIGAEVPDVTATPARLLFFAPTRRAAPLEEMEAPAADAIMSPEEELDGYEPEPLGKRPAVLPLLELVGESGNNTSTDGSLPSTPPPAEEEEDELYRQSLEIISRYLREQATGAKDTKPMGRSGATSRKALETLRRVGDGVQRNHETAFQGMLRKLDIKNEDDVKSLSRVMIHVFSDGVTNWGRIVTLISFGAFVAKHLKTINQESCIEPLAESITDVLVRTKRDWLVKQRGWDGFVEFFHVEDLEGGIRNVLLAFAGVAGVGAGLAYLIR
Induced myeloid leukemia cell differentiation protein Mcl-1/Bcl-2-like protein 11, sequence (O43521 whole entry, further chain, the tested form may be a part): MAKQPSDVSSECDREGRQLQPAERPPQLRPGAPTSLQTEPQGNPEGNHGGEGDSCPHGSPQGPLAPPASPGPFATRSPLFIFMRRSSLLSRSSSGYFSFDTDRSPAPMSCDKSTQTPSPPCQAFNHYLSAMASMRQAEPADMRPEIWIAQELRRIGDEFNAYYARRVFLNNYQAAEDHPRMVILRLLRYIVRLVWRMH
T1 sequence (O43521 whole entry, looked up, the tested form may be a part): as the sequence (O43521 whole entry, further chain, the tested form may be a part) above
T1 sequence (Q07820 whole entry, looked up, the tested form may be a part): as the sequence (Q07820 whole entry, the tested form may be a part) above

| SMILES | inhibition [2] | also measured |
| --- | --- | --- |
| COCOC[C@@]12C=C[C@@H](C(C)(C)C(=O)OCc3ccccc3)C[C@@H]1C=C(C)C[C@@H]2OCc1ccccc1 | 64.9% | IC50 [1]: 13.1 µM |
| C=C(C)CNC(=O)C(C)(C)[C@@H]1C=C[C@@]2(COCOC)[C@@H](O)CC(C)=C[C@H]2C1 | 17.1% |  |
| CC(C)Cc1cc(-c2ccc(-c3ccc(CCC(=O)O)cc3CC(C)C)cc2Cc2ccccc2)ccc1OCC(=O)O |  | inhibition [3]: 61.9%; inhibition [4]: 55.7% |
| COC(=O)C(C)(C)[C@@H]1C=C[C@@]2(CO)[C@@H](O)CC(C)=C[C@H]2C1 | 25% |  |
| COCOC[C@@]12C=C[C@@H](C(C)(C)C(=O)O)C[C@@H]1C=C(C)C[C@@H]2O | 18.2% |  |
| O=C(O)CCc1ccc(-c2ccc(-c3ccc(OCC(=O)O)cc3)cc2)cc1 |  | inhibition [3]: 96.9%; inhibition [4]: 107% |
| C=C(C)CNC(=O)C(C)(C)C1C=CC2(COCOC)C(C=C(C)CC2OC(=O)Nc2cccc(Cl)c2)C1 (racemic) | 74.3% | IC50 [1]: 8.3 µM; inhibition [3]: 70.6%; solubility [5]: Insoluble; inhibition of growth at 100 µM (MDA-MB-468): 80%; inhibition [4]: 46.4% |
| C=C(C)CNC(=O)C(C)(C)[C@@H]1C=C[C@@]2(COCOC)[C@@H](OC(=O)NCc3ccccc3)CC(C)=C[C@H]2C1 (relative stereo) | 40.3% |  |
| C=C(C)CNC(=O)C(C)(C)[C@@H]1C=C[C@@]2(COCOC)[C@@H](OC(=O)Nc3ccccc3)CC(C)=C[C@H]2C1 (relative stereo) | 61.8% |  |

Continued, in another order:

| inhibition [2] | SMILES | also measured |
| --- | --- | --- |
| 31.2% | C=C(C)COC(=O)C(C)(C)[C@@H]1C=C[C@@]2(COCOC)[C@@H](OCC(=C)C)CC(C)=C[C@H]2C1 |  |
| 34.8% | COCOC[C@@]12C=C[C@@H](C(C)(C)C(=O)OC)C[C@@H]1C=C(C)C[C@@H]2OC(=O)NC1CCCCC1 |  |
| 64.4% | COCOC[C@@]12C=C[C@@H](C(C)(C)C(=O)NCc3ccc(Br)cc3)C[C@@H]1C=C(C)C[C@@H]2OC(=O)NC1CCCCC1 (relative stereo) | IC50 [1]: 17 µM |
| 31.2% | C=C(C)CNC(=O)C(C)(C)[C@@H]1C=C[C@@]2(COCOC)[C@@H](OC(=O)NC(C)C)CC(C)=C[C@H]2C1 (relative stereo) |  |
| 19.7% | C=C(C)CNC(=O)C(C)(C)[C@@H]1C=C[C@@]2(COCOC)[C@@H](OC(=O)NC3CCCC3)CC(C)=C[C@H]2C1 (relative stereo) |  |
| 53.8% | C=C(C)CNC(=O)C(C)(C)[C@@H]1C=C[C@@]2(COCOC)[C@@H](OC(=O)NC3CCCCC3)CC(C)=C[C@H]2C1 (relative stereo) |  |
| 26.5% | COCOC[C@@]12C=C[C@@H](C(C)(C)C(=O)N3CCOCC3)C[C@@H]1C=C(C)C[C@@H]2OC(=O)NC1CCCCC1 (relative stereo) |  |
| 53.9% | COCOC[C@@]12C=C[C@@H](C(C)(C)C(=O)NCc3ccccc3)C[C@@H]1C=C(C)C[C@@H]2OC(=O)NC1CCCCC1 (relative stereo) |  |
